Source: PMC11513842, “Development of an orally bioavailable CDK12/13 degrader and induction of synthetic lethality with AKT pathway inhibition” (Cell Reports Medicine, 2024)
Where two headings read alike, the source gives them in different places.

Tests used:
[1] = test system: VCaP cells; test: Comet assay; type: cell-based, human; conditions: 100 nM, 12 h
Description: VCaP cells were seeded in 6-well plates one day prior to treatment. […] After 12 h incubation, the cells were trypsinized and resuspended at a concentration of 1 × 10^5 cells/mL in ice-cold PBS. The OxiSelect Comet Assay Kit (Cell Biolabs, STA-351) was used to assess DNA damage. Following the manufacturer’s protocol, cells were combined with pre-heated comet agarose at a 1:10 ratio, mixed thoroughly, and then transferred onto slides. The slides were incubated horizontally in the dark at 4°C for 20 min. Afterward, they were immersed in pre-chilled lysis buffer for 40 min at 4°C in the dark, followed by a 30-min incubation in pre-chilled alkaline solution at 4°C in the dark. Electrophoresis was then performed using alkaline solution at 30 V for 20 min. After electrophoresis, the slides were rinsed three times with pre-chilled deionized water, following with 70% ethanol for 5 min and completely dried at 37°C for 30 min. Subsequently, 100 μL of diluted Vista Green DNA dye was applied to each well. After 15 min incubation at room temperature, the comets were observed using a fluorescence microscope and quantified using ImageJ. The quantification figure was generated using GraphPad Prism software.

[2] = test system: PC310 organoids; test: PC310 organoid viability dose-response; type: cell-based; conditions: Homo sapiens, Figure S1J
[3] = test system: CDK12 and CDK13; conditions: VCaP cells
Description: After treatment of varying conditions, cell lysates were prepared using RIPA buffer (ThermoFisher Scientific) supplemented with cOmplete protease inhibitor cocktail tablets (Sigma-Aldrich). The Pierce BCA Protein Assay Kit ([…]) was used to determine the protein concentrations. Proteins with an equal amount from each sample were loaded on NuPAGE 3–8% Tris-Acetate or 4–12% Bis-Tris protein gels (ThermoFisher Scientific) and subsequently transferred to membranes, which were blocked using 5% nonfat milk. Following blocking at room temperature for 1 h, the membrane was further incubated with varying primary antibodies at 4°C overnight. HRP-conjugated secondary antibodies were used for detection, and membrane imaging was conducted using an Odyssey Fc Imager (LI-COR Biosciences).

[4] = test system: PC310 PDX; test: PC310 patient-derived xenograft efficacy; type: in vivo, mouse; conditions: i.v. 30 mg/kg 3x/week
Description: (§1) Six-week-old male CB17SCID mice obtained from Charles River (Stock # 236), were used to establish subcutaneous tumors on both dorsal flanks. Tumor dimensions were measured biweekly using digital calipers, applying the formula (π/6) (L × W^2), where L and W represent tumor length and width, respectively. At the study conclusion, mice were euthanized, and tumors were excised and weighed. The University of Michigan Institutional Animal Care and Use Committee (IACUC) approved all in vivo studies.
WA74 PDX model was developed at the University of Michigan during collection of a rapid autopsy case as part of the Michigan Legacy Tissue Program (MLTP). PC310 PDX model was obtained from Erasmus Medical Center, Rotterdam, the Netherlands. Both PDX lines were propagated in male CB17SCID mice by surgically implanting 2 mm^3 tumor fragments, coated with 100% Matrigel, into both flanks of mice. When tumors reached approximately 200 mm^3, mice were randomized into treatment groups. These groups received either 30 mg/kg YJ9069 via intravenous injection or 100 mg/kg YJ1206 by oral gavage, both administered three times per week, with or without 15 mg/kg uprosertib by oral gavage five days per week for 3–4 weeks. In accordance with IACUC guidelines, the maximum tumor size was limited to 2.0 cm in any dimension, and mice were euthanized if xenografts reached this endpoint.

[5] = Body weight of treated animals in tumor models; type: in vivo, mouse; conditions: all tumor models (castrated VCaP, WA74 PDX, PC310 PDX), i.v. 30 mg/kg
Description: as §1
(§2) For the VCaP castration-resistant tumor model, 3×10^6 VCaP cells were subcutaneously injected into both dorsal flanks of mice using a serum-free medium mixed with 50% Matrigel (BD Biosciences). Upon tumors reaching palpable size (∼200 mm^3), animals underwent castration. When tumors regrew to their pre-castration size, mice were randomized for treatment with 30 mg/kg YJ9069 or vehicle via intravenous injection or 100 mg/kg YJ1206 or vehicle, with or without 15 mg/kg uprosertib by oral gavage. Treatments were administered three times weekly for three to four weeks.
For the 22Rv1 castration-resistant tumor model, mice underwent castration and then 12 days of recovery. Subsequently, 1 × 10^6 22Rv1 cells were subcutaneously injected into both dorsal flanks using a serum-free medium with 50% Matrigel (BD Biosciences). […]

[6] = test system: androgen receptor (AR)-positive prostate and breast cancer cells; test: Cell viability screening, panel of 155 normal and cancer cell lines; type: cell-based; conditions: Homo sapiens, 120 h, 5 days, Figure 1G
Description: (§3) Cells were seeded in 96-well plates and incubated at 37°C with 5% CO2 overnight. A series of compound dilutions were added into the cells. After 5 days incubation, cell proliferation was tested using the CellTiter-Glo assay (Promega) according to the manufacturer’s protocol. Luminescence was measured using the Infinite M1000 Pro plate reader (Tecan). Data analysis was conducted using GraphPad Prism software.

[7] = test system: normal and non-neoplastic cells; test: as above; type: cell-based; conditions: Homo sapiens, 120 h, 5 days, Figure 1G
Description: as §3

[8] = test system: castrated VCaP xenograft (VCaP-CRPC); test: VCaP castration-resistant prostate cancer xenograft efficacy; type: in vivo, mouse; conditions: i.v. 30 mg/kg 3x/week, 18 days
Description: as §1
as §2, with “with or without 15 mg/kg uprosertib by oral gavage. Treatments were administered three times weekly for three to four weeks.” left out

[9] = Pharmacokinetic profile in Sprague Dawley rats; type: in vivo, rat; conditions: Sprague-Dawley, rat, plasma, SD rats; for AUC(0-t): read-out: AUC(0-t); for Tmax: read-out: Tmax

SMILES: O=C1CCC(N2C(=O)c3cccc(OCC(=O)N4CCN(c5ccc(N(C(=O)NCc6ccccc6)C6CCC(Nc7ncc8ccccc8n7)CC6)cc5)CC4)c3C2=O)C(=O)N1 (stereo not drawn) [YJ9069]
- DNA damage (tail moment) [1]: significant increase in the tail moment
- IC50 [2]: 107 nM
- CDK12/13 degradation (immunoblot) [3]: enhanced degradation of both CDK12 and CDK13 proteins compared to 7f
- progressive disease (PD), waterfall plot (RECIST) [4]: 63%
- stable disease (SD), waterfall plot (RECIST) [4]: 31%
- body weight loss in the treated animals [5]: less than 20%
- IC50 [6]: < 500 nM
- IC50 [7]: > 10000 nM
- treated animals with tumor regression exceeding 50% ([8]; VCaP-CRPC): 73%
- partial response (PR), waterfall plot (RECIST) ([8]; castrated VCaP): 82%
- stable disease (SD), waterfall plot (RECIST) ([8]; castrated VCaP): 18%
- Cmax ([9]; iv, i.v. 2.5 mg/kg): 4130 nM
- clearance ([9]; iv, i.v. 2.5 mg/kg): 14.1 mL/min/kg
- half-life ([9]; iv, i.v. 2.5 mg/kg): 4.39 h
- AUC ([9]; iv, i.v. 2.5 mg/kg, read-out: AUC(0-)): 2970 ng·h/mL
- AUC(0-t) ([9]; iv, i.v. 2.5 mg/kg): 2930 ng·h/mL
- Tmax ([9]; iv, i.v. 2.5 mg/kg): 0.08 h
- Cmax ([9]; oral 10 mg/kg): 6 nM
- bioavailability ([9]; oral 10 mg/kg vs i.v. 2.5 mg/kg, read-out: F(%) (bioavailability by oral gavage)): 0.04%
- AUC(0-t) ([9]; oral 10 mg/kg): 5.06 ng·h/mL
- Tmax ([9]; oral 10 mg/kg): 1.56 h
